These results are taken from US20260248734A1, “COMPOSITIONS AND METHODS FOR TREATING METABOLIC DISEASES/DISORDERS” (priority 2023, published 2026).

The test system of assay [1] is differentiated human adipocytes. Briefly: Thermogenic gene expression in human adipocytes in vitro by real-time PCR. The format is cell-based. The method, then: RNA from iWAT tissue and cells was isolated and purified using a Qiagen Rneasy Mini Kit (Valencia, CA) according to manufacturer guidelines. mRNA concentrations were measured using a Take3 Micro-Volume Plate (BioTek, Winooski, VT), then normalized to 150 ng of mRNA for conversion to cDNA. cDNA was synthetized using random hexamer primers and an iScript cDNA-synthesis kit (Biorad). The quantitative RT-PCR reactions were performed using the So Advanced™ Universal SYBER Green Supermix kit (Biorad) in a CFX96 Touch Real-Time PCR Detection System (BioRad, Hercules, CA). Fold expression levels were calculated using the […]. Transcript levels were normalized to 18S ribosomal RNA levels in all experiments. Primer (Table 1) specificity was tested by assessing the melting curve.
(In qPCR the cycle at which signal appears reflects the starting amount.)

Assay [2] has as its system adipose derived stem cells (ASCs) isolated from WT SubQ WAT. Briefly: Beige differentiation of ASCs on ECM protein coated surfaces, beige marker expression by RT-PCR. Type of assay: cell-based, mice. To be noted: for reduction in UCP1 relative to uncoated surfaces: ASCs beige-differentiated on coated surface; for COX7A1 expression: differentiated cells on coated surface. The method, then:
Immunohistochemistry. SubQ fat was harvested from animals using sterile techniques, cut into small pieces and fixed in 4% paraformaldehyde for 24 hours at 4 degrees. Tissue pieces were then washed with phosphate buffered saline (PBS), permeabilized with 0.5% triton in PBS and blocked with 10% donkey serum; followed by incubation with either 1) ITA7 antibody (1:100, Novus Biologics NBP1-86,118) and Griffonia simplicifolia isolectin conjugated with Rhodamine to labels endothelial cells, or 2) ITA7 antibody and CD68 antibody (1:100, Santa Cruz sc-70761) to label macrophages for 48 hours at 4 degrees. After washes (3×15 minutes), the tissues were incubated with second antibodies (Alexa Fluor 647 Donkey Anti-Rabbit IgG and/or TRITC Goat Anti-Mouse, IgG), BODIPY to stain lipid droplets and DAPI to stain the nuclei, for 2 hours at room temperature. Confocal imaging. A confocal laser-scanning microscope was used to image samples (Leica TCS SP8 Confocal Microscope; Buffalo Grove, IL). Adipocytes labeled by BODIPY and ITA7 labeled by Alexa Fluor 647 were imaged simultaneously in two channels, with Rhodamine-labeled endothelial tissue or TRITC CD68-labeled macrophages, and DAPI nuclei imaged in series. Confocal image stacks were obtained with a 63×oil immersion lens (NA 1.4). Laser intensity, confocal aperture, and photomultiplier gain were kept constant across samples. Image processing and analysis: Confocal image stacks were processed and analyzed using Leica LASX software version 3.5.2 (Wetzlar, Germany). The Alexa 647 and Rhodamine channels were thresholded and the intersection between both layers was quantified in order to characterize the colocalization between ITA7 and endothelial cells. In separate tissue, the colocalization between ITA7 and CD68 positive cells was also quantified. Using 3D images, the Alexa 647, Rhodamine or TRITC and intersection area per cell were calculated. cytoNet image analysis: cytoNet is a software accessible over the web that quantifies the spatial relationships in cell communities using principles of graph theory and evaluates the effect of cell-cell interactions on individual cell phenotypes (https://www.braininitiative.org/toolmakers/resources/cytonet/). Image files were segmented manually and provided as input to cytoNet. Because blood vessels have noncircular shapes, the minimum distance between object perimeters was computed in order to define graph edges. The resulting cell-to-cell perimeter distance and cells characteristics were analyzed in WT and KO SubQ WAT images. RNA isolation and quantitative RT-PCR. RNA from tissue and cells was isolated and purified using a Qiagen RNeasy Mini Kit (Valencia, CA) according to manufacturer guidelines. mRNA concentrations were measured using a Take3 Micro-Volume Plate (BioTek. Winooski, VT), then normalized to 150 ng of mRNA for conversion to cDNA. cDNA was synthetized using random hexamer primers and an iScript cDNA-synthesis kit (Biorad). The quantitative RT-PCR reactions were performed using the So Advanced™ Universal SYBER Green Supermix kit (Biorad) in a CFX96 Touch Real-Time PCR Detection System (BioRad, Hercules. CA). Fold expression levels were calculated using the 2^ΔΔCt method. Transcript levels were normalized to 18S ribosomal RNA levels in all experiments that used mice cells (FIGS. 3, 4, 7), or the GAPDH reference gene in experiments with human cells (FIG. 6). Primer (Table 1) specificity was tested by the assessing the melting curve. Western blot analysis. Cells were lysed using CelLytic (Sigma, St. Louis, MO) and tissue was lysed using RIPA buffer (EMD Millipore, Billerica, MA) and protease inhibitor cocktail (Fischer Scientific, Waltham, MA). Protein concentration was determined using the Bio-Rad DC protein assay (Bio-Rad Laboratories, Hercules. CA). […]

In a further assay the test system is ASCs. Briefly: Hydrogen peroxide (ROS-Glo H2O2) assay of ASCs differentiated on coated surfaces. The format is cell-based, mice. To be noted: compared to uncoated surface.

In the case of `C=C[C@@]1(C)CC(=O)[C@]2(O)[C@@]3(C)[C@@H](O)CCC(C)(C)[C@@H]3[C@H](O)[C@H](OC(C)=O)[C@@]2(C)O1` [FSK, (13R)-1α,6β,9α-Trihydroxy-11-oxo-8α,13-epoxylabd-14-en-7β-yl acetate], in assay [1], the “peak of efficacy on browning after administration” value is recorded as ~ 6 h. Also, in assay [1] (6 h of treatment), the “increase in Cox7A1 gene expression” value was determined as 1.5 fold and the “increase in UCP1 gene expression” value is on record as ~ 5 fold.

As for “CO1A1: Collagen 1A1 recombinant protein (R&D Systems) coated on culture plates”, in assay [2], the “reduction in UCP1 relative to uncoated surfaces” value was determined as 71.7% and the COX7A1 expression result is reported as “significant decrease”. Besides, the PGC1A levels entry in assay [2] (compared to uncoated surfaces) was “significant decrease”.

“LAMA4: Laminin α4 recombinant protein (R&D Systems) coated on culture plates”: the ROS levels entry with ASCs is “higher ROS levels”. Besides, in assay [2], the “reduction in UCP1 relative to uncoated surfaces” value is 51.4% and the COX7A1 expression entry was “significant decrease”.

B1: CO3A1: Collagen 3A1 recombinant protein (R&D Systems) coated on culture plates (protein, UniProt P02461 154-1221, looked up)
Collagen alpha-1(III) chain: QYDSYDVKSGVAVGGLAGYPGPAGPPGPPGPPGTSGHPGSPGSPGYQGPPGEPGQAGPSGPPGPPGAIGPSGPAGKDGESGRPGRPGERGLPGPPGIKGPAGIPGFPGMKGHRGFDGRNGEKGETGAPGLKGENGLPGENGAPGPMGPRGAPGERGRPGLPGAAGARGNDGARGSDGQPGPPGPPGTAGFPGSPGAKGEVGPAGSPGSNGAPGQRGEPGPQGHAGAQGPPGPPGINGSPGGKGEMGPAGIPGAPGLMGARGPPGPAGANGAPGLRGGAGEPGKNGAKGEPGPRGERGEAGIPGVPGAKGEDGKDGSPGEPGANGLPGAAGERGAPGFRGPAGPNGIPGEKGPAGERGAPGPAGPRGAAGEPGRDGVPGGPGMRGMPGSPGGPGSDGKPGPPGSQGESGRPGPPGPSGPRGQPGVMGFPGPKGNDGAPGKNGERGGPGGPGPQGPPGKNGETGPQGPPGPTGPGGDKGDTGPPGPQGLQGLPGTGGPPGENGKPGEPGPKGDAGAPGAPGGKGDAGAPGERGPPGLAGAPGLRGGAGPPGPEGGKGAAGPPGPPGAAGTPGLQGMPGERGGLGSPGPKGDKGEPGGPGADGVPGKDGPRGPTGPIGPPGPAGQPGDKGEGGAPGLPGIAGPRGSPGERGETGPPGPAGFPGAPGQNGEPGGKGERGAPGEKGEGGPPGVAGPPGGSGPAGPPGPQGVKGERGSPGGPGAAGFPGARGLPGPPGSNGNPGPPGPSGSPGKDGPPGPAGNTGAPGSPGVSGPKGDAGQPGEKGSPGAQGPPGAPGPLGIAGITGARGLAGPPGMPGPRGSPGPQGVKGESGKPGANGLSGERGPPGPQGLPGLAGTAGEPGRDGNPGSDGLPGRDGSPGGKGDRGENGSPGAPGAPGHPGPPGPVGPAGKSGDRGESGPAGPAGAPGPAGSRGAPGPQGPRGDKGETGERGAAGIKGHRGFPGNPGAPGSPGPAGQQGAIGSPGPAGPRGPVGPSGPPGKDGTSGHPGPIGPPGPRGNRGERGSEGSPGHPGQPGPPGPPGAPGPCCGGVGAAAIAGIGGEKAGGFAPYYG
As to B1, in assay [2], the “reduction in UCP1 relative to uncoated surfaces” value turned out to be 91.16% and the COX7A1 expression entry was “significant decrease”.
